Test results reported in patent US10081648B2, “Lipid-based platinum compounds and nanoparticles” (AKAMARA THERAPEUTICS, INC., priority 2013, dated 2018).

How the values were obtained:
[1] = tested on: MDA-MB-231, SKOV-3, HeLa, SW-620 and HCT-116 cell lines; assay: MTT cell viability assay, 72 h; type: cell-based, human; details: for inhibition of cell viability: 0-25 μM concentration range, dose-response relationship; for IC50 compared with oxaliplatin: human cancer cell lines
Experimental: FIGS. 7A-7F show MTT assay results for some exemplary compounds disclosed herein. Graphical representation of MTT assay for the activity of exemplary compounds examined on various human cancer cell lines. […] The IC50 values of compound/oxaliplatin tested in cell-lines are mentioned alongside, in corresponding colors as the cell viability curve.
Cell culture: Mammalian cells were grown in specific culture media, supplemented with 10% fetal bovine serum (FBS) and antibiotics in a humidified environment containing 5% CO2 at 37° C.
Cell viability assay: The effects of supramolecular platinum conjugates on the viability of cancer cells were measured using MTT assay. Cells in 100 μl culture-media were plated in 96-well plates (3000-5000 cells/well) and allowed to adhere overnight in a humidified environment containing 5% CO2 at 37° C. Fresh media (100 μL) containing different concentrations of compounds were added to cells and incubated for 72 hours. Following incubation, cell viability was determined using the MTT assay. The MTT assay measures cell viability through assessment of active mitochondrial dehydrogenase, which converts MTT into water-insoluble purple formazan crystals. Cell viability was plotted as dose-response curves using curve fitting.
The effects of exemplary compounds (compound 25, 26, 27, 28, 31, 48) were evaluated in vitro in comparison with oxaliplatin in breast cancer (MDA-MB-231), ovarian cancer (SKOV-3), cervical cancer (HeLa) and colorectal cancer (SW-620 and HCT-116) cell lines.

[2] = tested on: MDA-MB-231 cells; assay: Cellular uptake of platinum compounds (AAS); type: cell-based; details: 50 μM platinum equivalent, 5 hrs
Experimental: Cells were incubated with 50 μM concentration of platinum compounds for 5 hours. The amount of platinum accumulated in cells was measured by AAS and expressed as ng of platinum accumulated per 10^5 cells.
Cellular uptake of platinum compounds: MDA-MB-231 cells (1×10^6) were seeded in 2 ml media per well of a 6-well plate and grown for 24 hrs. Required volume of compounds was added to achieve a final concentration of 50 μM platinum equivalent per well. Cells were incubated for 5 hrs after adding the compounds, then washed twice with PBS, harvested by trypsinization, resuspended in PBS and counted. Cells were centrifuged and pellets stored at −80° C. until further processing. The cell pellets were digested with 100 μl nitric acid at 70° C. for 4 hours. Following digestion, the samples were diluted in 2% HCl and the quantity of accumulated platinum was determined using Atomic absorption spectroscopy (AAS). The assay was validated using a linear standard curve, generated from serial dilutions of certified stock platinum standard and cellular uptake of platinum was expressed as ng of platinum per 1×10^5 cells.

| Compound | inhibition of cell viability [1] | IC50 compared with oxaliplatin [1] | cellular uptake of platinum [2] |
| --- | --- | --- | --- |
| CC(C)CCC[C@@H](C)[C@H]1CCC2C3CC=C4C[C@@H](OCC[N+]5(CC(=O)[O-])CC(=O)[O][Pt]56[NH][C@@H]5CCCC[C@H]5[NH]6)CC[C@]4(C)C3CC[C@@]21C (some centres unmarked) [Compound 25] | significant inhibition of cell viability | lower than oxaliplatin |  |
| CC(C)CCC[C@@H](C)[C@H]1CC[C@H]2[C@@H]3CC=C4C[C@@H](OC(=O)NCC[N+]5(CC(=O)[O-])CC(=O)[O][Pt]56[NH][C@@H]5CCCC[C@H]5[NH]6)CC[C@]4(C)[C@H]3CC[C@]12C (some centres unmarked) [Compound 26] | significant inhibition of cell viability | lower than oxaliplatin |  |
| CC(C)CCC[C@@H](C)[C@H]1CC[C@H]2[C@@H]3CC=C4C[C@@H](OCCNC(=O)C[N+]5(CC(=O)[O-])CC(=O)[O][Pt]56[NH][C@@H]5CCCC[C@H]5[NH]6)CC[C@]4(C)[C@H]3CC[C@]12C (some centres unmarked) [Compound 27] | significant inhibition of cell viability | lower than oxaliplatin |  |
| CC(C)CCC[C@@H](C)[C@H]1CC[C@H]2[C@@H]3CC=C4C[C@@H](OCCOCC[N+]5(CC(=O)[O-])CC(=O)[O][Pt]56[NH][C@@H]5CCCC[C@H]5[NH]6)CC[C@]4(C)[C@H]3CC[C@]12C (some centres unmarked) [Compound 28] | significant inhibition of cell viability | lower than oxaliplatin |  |
| CC(C)CCC[C@@H](C)[C@H]1CC[C@H]2[C@@H]3CC=C4C[C@@H](OCCCC5=CC(=O)[O][Pt]6([NH][C@@H]7CCCC[C@H]7[NH]6)[O]5)CC[C@]4(C)[C@H]3CC[C@]12C [Compound 31] | significant inhibition of cell viability | lower than oxaliplatin |  |
| O=C1[O][Pt]2([NH][C@@H]3CCCC[C@H]3[NH]2)[O]C1=O [oxaliplatin] |  |  | similar |
